Assay results as given in BigSolDB 2.1.

Nc1cccc(Cl)c1C(=O)O
solubility (mole fraction)
Details	278.15 K	283.15 K	288.15 K	293.15 K	298.15 K	303.15 K	308.15 K	313.15 K	318.15 K	323.15 K
in NMP	0.0744	0.0797	0.0873	0.0958	0.106	0.119	0.135	0.155	0.178	0.204
in acetonitrile	0.00746	0.00991	0.0129	0.0166	0.0208	0.0259	0.0313	0.0377	0.045	0.0541
in cyclohexane	–	4.1e-05	6e-05	8.7e-05	0.000115	0.000155	0.000205	0.000269	0.000344	0.000445
in ethanol	0.0284	0.0346	0.0408	0.049	0.0584	0.0702	0.0831	0.1	0.119	0.141
in ethyl acetate	0.0257	0.0303	0.036	0.0423	0.051	0.0612	0.0731	0.0867	0.103	0.122
in ethylene glycol	0.0133	0.0175	0.0225	0.0283	0.0349	0.0423	0.0505	0.0601	0.071	0.0848
in isobutanol	0.0106	0.0145	0.0189	0.0244	0.0308	0.0385	0.047	0.057	0.0677	0.0809
in isopropanol	0.0195	0.0231	0.0276	0.0332	0.0399	0.0479	0.0571	0.0676	0.0819	0.0982
in n-butanol	0.0172	0.0208	0.0248	0.03	0.0365	0.0439	0.053	0.0642	0.0786	0.0958
in n-heptanol	0.00987	0.0135	0.0177	0.0225	0.0276	0.0338	0.0414	0.0507	0.0625	0.0776
in n-octanol	0.00855	0.0118	0.0154	0.0194	0.0241	0.0301	0.0376	0.0476	0.0606	0.0753
in n-propanol	0.0203	0.0248	0.0299	0.0353	0.0416	0.0498	0.0592	0.0718	0.0859	0.103
in toluene	0.00446	0.00515	0.00616	0.0075	0.00924	0.0112	0.0133	0.0156	0.0179	0.0207
in water	0.000571	0.000674	0.000801	0.000965	0.00116	0.0014	0.00169	0.00203	0.00247	0.00297
